# Assay results taken from paper PMC7926640, “Synthesis, Neuroprotection, and Antioxidant Activity of 1,1′-Biphenylnitrones as α-Phenyl-N-tert-butylnitrone Analogues in In Vitro Ischemia Models” (Molecules, 2021).
# Molecular target: T1, soybean lipoxygenase (LOX) (Glycine max, UniProt P08170)
# T1 construct: gene LOX1.1
# T1 sequence (P08170 1-839): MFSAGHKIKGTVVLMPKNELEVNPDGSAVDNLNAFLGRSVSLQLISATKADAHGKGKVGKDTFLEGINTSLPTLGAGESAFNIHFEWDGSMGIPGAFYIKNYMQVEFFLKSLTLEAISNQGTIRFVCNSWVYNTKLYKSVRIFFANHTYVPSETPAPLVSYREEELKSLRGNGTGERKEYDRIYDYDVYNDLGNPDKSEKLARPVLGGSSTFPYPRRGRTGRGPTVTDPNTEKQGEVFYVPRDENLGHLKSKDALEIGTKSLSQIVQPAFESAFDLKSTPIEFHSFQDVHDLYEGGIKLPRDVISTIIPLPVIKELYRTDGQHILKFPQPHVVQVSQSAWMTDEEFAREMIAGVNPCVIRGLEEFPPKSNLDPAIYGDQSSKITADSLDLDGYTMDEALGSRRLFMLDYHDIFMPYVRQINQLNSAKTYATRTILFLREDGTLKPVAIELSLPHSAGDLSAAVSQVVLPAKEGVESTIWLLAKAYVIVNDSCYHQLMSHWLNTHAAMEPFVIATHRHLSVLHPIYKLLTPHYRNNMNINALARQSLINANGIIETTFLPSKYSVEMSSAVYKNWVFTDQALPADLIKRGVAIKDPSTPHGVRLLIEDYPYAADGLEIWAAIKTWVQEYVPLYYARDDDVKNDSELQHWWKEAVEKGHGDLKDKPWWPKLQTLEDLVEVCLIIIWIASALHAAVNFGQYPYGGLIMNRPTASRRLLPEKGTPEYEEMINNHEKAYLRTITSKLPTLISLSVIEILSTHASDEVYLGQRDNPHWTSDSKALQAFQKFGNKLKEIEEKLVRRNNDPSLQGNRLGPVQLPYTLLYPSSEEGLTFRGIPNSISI
# Test: soybean LOX inhibition, linoleate oxidation monitored at […] nm
# Type: biochemical
row,IC50 [µM],Compound
1,57.5,"[O-]/[N+](=C\c1ccc(-c2ccccc2)cc1)Cc1ccccc1 [compound 3, (Z)-1-([1,1′-Biphenyl]-4-yl)-N-benzylmethanimine oxide]"
2,100,"C/[N+]([O-])=C/c1ccc(-c2ccccc2)cc1 [compound 1, (Z)-1-([1,1′-Biphenyl]-4-yl)-N-methylmethanimine oxide]"
3,100,"CC(C)(C)/[N+]([O-])=C/c1ccc(-c2ccc(/C=[N+](\[O-])C(C)(C)C)cc2)cc1 [compound 5, (1Z,1′Z)-1,1′-([1,1′-Biphenyl]-4,4′-diyl)bis(N-tert-butylmethanimineoxide)]"
